Data as given in the supplement of paper PMC10307832.

How the values were obtained:
Assay in all cases: relative viability (nuclei count vs DMSO), 5 days (fraction); higher = more cells survive
[1] = compound: C#Cc1cccc(Nc2ncnc3cc(OC)c(OCCCCCCC(=O)NO)cc23)c1 [CUDC-101] + COc1cc2c(Oc3ccc(NC(=O)C4(C(=O)Nc5ccc(F)cc5)CC4)cc3F)ccnc2cc1OCCCN1CCOCC1 [Foretinib] (partner 0.25 µM)
Outline: (§1)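 Cells from lung cancer lines were seeded into 1536-well plates and, one day later, dosed by pin tool. Treatments were either a single drug or a fixed dose of an anchor drug with five library-drug doses (not always all listed) in √10 steps. After 5 days, nuclei were stained in a one-step fixation (final 0.05% Triton X-100, 1% formaldehyde, 1 ug/ml Hoechst) and counted on 4× images, and relative viability is the treated-to-vehicle nuclei ratio, as the median of duplicate plates.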

[2] = compound: C#Cc1cccc(Nc2ncnc3cc(OC)c(OCCCCCCC(=O)NO)cc23)c1 [CUDC-101] + COc1cccc2cc(-c3nc([C@H]4CC[C@H](C(=O)O)CC4)n4ncnc(N)c34)[nH]c12 [OSI-027] (partner 0.5 µM)
Outline: as §1

[3] = compound: C#Cc1cccc(Nc2ncnc3cc(OC)c(OCCCCCCC(=O)NO)cc23)c1 [CUDC-101] + Cc1cc(Nc2cc(N3CCN(C)CC3)nc(Sc3ccc(NC(=O)C4CC4)cc3)n2)n[nH]1 [Tozasertib] (partner 0.1 µM)
Outline: as §1

[4] = compound: COc1cc2/c(=N/c3ccc(Br)cc3F)nc[nH]c2cc1OCC1CCN(C)CC1 [Vandetanib] + O=C(c1cc(Cc2n[nH]c(=O)c3ccccc23)ccc1F)N1CCN(C(=O)C2CC2)CC1 [Olaparib] (partner 8 µM)
Outline: as §1

Row | Cell Line | relative viability ([1]; first compound 0.01 µM) | relative viability ([1]; first compound 0.03162 µM) | relative viability ([1]; first compound 0.1 µM) | relative viability ([1]; first compound 0.3162 µM) | relative viability ([1]; first compound 1 µM) | relative viability ([2]; first compound 0.01 µM) | relative viability ([2]; first compound 0.03162 µM) | relative viability ([2]; first compound 0.1 µM) | relative viability ([2]; first compound 0.3162 µM) | relative viability ([2]; first compound 1 µM) | relative viability ([3]; first compound 0.01 µM) | relative viability ([3]; first compound 0.03162 µM) | relative viability ([3]; first compound 0.1 µM) | relative viability ([3]; first compound 0.3162 µM) | relative viability ([3]; first compound 1 µM) | relative viability ([4]; first compound 0.02 µM) | relative viability ([4]; first compound 0.06325 µM) | relative viability ([4]; first compound 0.2 µM) | relative viability ([4]; first compound 0.6325 µM) | relative viability ([4]; first compound 2 µM)
1 | NCI-H1915 | 1.09 | 1.04 | 1.08 | 1.09 | 0.707 | 0.627 | 0.597 | 0.591 | 0.551 | 0.404 | 0.437 | 0.458 | 0.429 | 0.357 | 0.288 | 0.244 | 0.227 | 0.265 | 0.231 | 0.24
2 | NCI-H661 | 1.06 | 0.861 | 1.05 | 0.98 | 0.536 | 0.709 | 0.808 | 0.735 | 0.711 | 0.346 | 0.356 | 0.331 | 0.362 | 0.342 | 0.248 | 0.793 | 0.696 | 0.726 | 0.759 | 0.735
3 | NCI-H2228 | 0.763 | 0.939 | 1.11 | 0.964 | 0.719 | 0.406 | 0.689 | 0.671 | 0.615 | 0.419 | 0.255 | 0.237 | 0.263 | 0.317 | 0.194 | 0.65 | 0.566 | 0.719 | 0.661 | 0.559
4 | NCI-H1975 | 0.856 | 1.03 | 0.99 | 1.04 | 0.808 | 0.658 | 0.75 | 0.728 | 0.813 | 0.698 | 0.741 | 0.717 | 0.843 | 0.837 | 0.701 | 0.807 | 0.733 | 0.795 | 0.684 | 0.716
5 | NCI-H2087 | 1.33 | 1.03 | 1.08 | 1.04 | 0.664 | 0.473 | 0.548 | 0.463 | 0.679 | 0.561 | 0.292 | 0.243 | 0.233 | 0.195 | 0.223 | 0.497 | 0.567 | 0.644 | 0.613 | 0.639
6 | LCLC-97TM1 | 0.844 | 0.824 | 0.962 | 0.829 | 0.666 | 0.635 | 0.571 | 0.445 | 0.548 | 0.273 | 0.197 | 0.357 | 0.152 | 0.195 | 0.104 | 0.374 | 0.377 | 0.357 | 0.352 | 0.343
7 | EPLC-272H | 0.664 | 0.723 | 0.646 | 0.341 | 0.585 | 0.266 | 0.317 | 0.238 | 0.244 | 0.187 | 0.216 | 0.284 | 0.306 | 0.231 | 0.121 | 0.969 | 0.526 | 1.19 | 0.854 | 0.49
8 | CAL-12T | 1.11 | 1.06 | 1.18 | 1.16 | 1.16 | 0.706 | 0.668 | 0.777 | 0.71 | 0.575 | 0.409 | 0.278 | 0.318 | 0.344 | 0.362 | 0.663 | 0.692 | 0.765 | 0.676 | 0.65
9 | NCI-H1755 | 0.899 | 0.905 | 0.99 | 1.01 | 0.903 | 0.624 | 0.729 | 0.794 | 0.781 | 0.571 | 0.478 | 0.563 | 0.572 | 0.602 | 0.584 | 0.917 | 0.863 | 0.848 | 0.822 | 0.863
10 | H3255 | 0.864 | 0.917 |  | 0.486 | 0.279 | 0.571 | 0.556 |  | 0.395 | 0.204 | 0.649 | 0.591 |  | 0.549 | 0.135 | 0.516 | 0.518 | 0.594 | 0.509 | 0.27
11 | NCI-H441 | 0.976 | 1.23 | 1.05 | 0.978 | 0.937 | 0.622 | 0.625 | 0.621 | 0.803 | 0.399 | 0.536 | 0.683 | 0.645 | 0.599 | 0.435 | 0.498 | 0.576 | 0.646 | 0.658 | 0.616
12 | NCI-H1793 | 0.669 | 0.449 | 0.628 | 0.5 | 0.403 | 0.291 | 0.255 | 0.255 | 0.25 | 0.218 | 0.321 | 0.237 | 0.325 | 0.293 | 0.375 | 0.86 | 0.803 | 0.74 | 0.658 | 0.577
13 | LK-2 | 1.23 | 1.19 | 0.957 | 0.819 | 0.554 | 0.217 | 0.212 | 0.201 | 0.203 | 0.15 | 0.149 | 0.222 | 0.185 | 0.195 | 0.139 | 0.846 | 0.71 | 0.724 | 0.72 | 0.669
14 | SW 1573 | 1.02 | 1.03 | 1.08 | 0.862 | 0.611 | 0.578 | 0.623 | 0.726 | 0.766 | 0.279 | 0.211 | 0.182 | 0.173 | 0.173 | 0.131 | 0.434 | 0.416 | 0.393 | 0.521 | 0.489
15 | HCC-78 | 0.549 | 0.56 | 0.543 | 0.494 | 0.268 | 0.291 | 0.352 | 0.362 | 0.335 | 0.218 | 0.401 | 0.405 | 0.36 | 0.316 | 0.184 | 0.823 | 0.756 | 0.748 | 0.913 | 0.703
16 | SK-MES-1 | 0.937 | 0.843 | 0.981 | 1.01 | 0.679 | 0.604 | 0.601 | 0.673 | 0.656 | 0.381 | 0.976 | 0.945 | 0.942 | 0.809 | 0.502 | 0.71 | 0.676 | 0.708 | 0.606 | 0.424
